According to ChEMBL document CHEMBL3792325, “Two novel phenanthraquinones with anti-cancer activity isolated from Bletilla striata” (Bioorg Med Chem Lett, 2016):
Converted amounts (≈) assume the structure as drawn.

Key:
A549 [1] = experiment: Induction of ROS generation in human A549 cells assessed as fold change at 20 ug/ml after 24 hrs by FACS-flow cytometry method relative to control; assay type: functional
A549 [2] = experiment: Antiproliferative activity against human A549 cells assessed as growth inhibition after 48 hrs by MTT assay; assay type: functional, cell-based; conditions: A549, 48 h
HT-29 = experiment: Antiproliferative activity against human HT-29 cells assessed as growth inhibition after 48 hrs by MTT assay; assay type: functional, cell-based; conditions: HT-29, 48 h
A549 [3] = experiment: Effect on cell cycle distribution in human A549 cells assessed as accumulation at G2 phase at 20 ug/ml after 24 hrs by propidium iodide staining based flow cytometry method (reference value: 8%); assay type: functional
MCF7 = experiment: Antiproliferative activity against human MCF7 cells assessed as growth inhibition after 48 hrs by MTT assay; assay type: functional, cell-based; conditions: MCF7, 48 h
HUVEC = experiment: Antiproliferative activity against human HUVEC cells assessed as growth inhibition after 48 hrs by MTT assay; assay type: cell-based
A549 [4] = experiment: Induction of ROS generation in human A549 cells at 20 ug/ml after 24 hrs by FACS-flow cytometry method (reference value: 20.51); assay type: functional
A549 [5] = experiment: Effect on cell cycle distribution in human A549 cells assessed as accumulation at […] phase at 20 ug/ml after 24 hrs by propidium iodide staining based flow cytometry method (reference value: 1.96%); assay type: functional
A549 [6] = experiment: Effect on cell cycle distribution in human A549 cells assessed as accumulation at S phase at 20 ug/ml after 24 hrs by propidium iodide staining based flow cytometry method (reference value: 38.76%); assay type: functional
A549 [7] = experiment: Effect on cell cycle distribution in human A549 cells assessed as accumulation at G1 phase at 20 ug/ml after 24 hrs by propidium iodide staining based flow cytometry method (reference value: 53.24%); assay type: functional

Row | SMILES | fold change (FC) (A549 [1]) | IC50 (A549 [2]) | IC50 (HT-29) | Activity (A549 [3]) | IC50 (MCF7) | IC50 (HUVEC) | Flu intensity (A549 [4]) | Activity (A549 [5]) | Activity (A549 [6]) | Activity (A549 [7])
1 | COC1=C(c2c(O)ccc3c2ccc2cc(OC)c(O)c(OC)c23)c2ccc3cc(O)ccc3c2C(=O)C1=O | 10 | 22.6 µg/mL (≈ 43.3 µM) | 22.7 µg/mL (≈ 43.4 µM) | 8% | 12.6 µg/mL (≈ 24.2 µM) | 33.5 µg/mL (≈ 64.1 µM) | 256.68 | 1.95% | 22.6% | 69.4%
2 | COc1cc2ccc3c(OC)c(O)ccc3c2c(OC)c1O | – | > 100 µg/mL | > 100 µg/mL | – | > 100 µg/mL | > 100 µg/mL | – | – | – | –
3 | Cc1ccc2c(c1)C(=O)c1ccccc1C2=O [TECTOQUINONE] | – | > 100 µg/mL | > 100 µg/mL | – | > 100 µg/mL | > 100 µg/mL | – | – | – | –
4 | COc1cc(C(=O)O)ccc1O [VANILLIC ACID] | – | > 100 µg/mL | > 100 µg/mL | – | > 100 µg/mL | > 100 µg/mL | – | – | – | –
5 | COc1cc(O)c2c(c1)C(=O)c1cc(C)cc(O)c1C2=O [PHYSCION] | – | > 100 µg/mL | > 100 µg/mL | – | > 100 µg/mL | > 100 µg/mL | – | – | – | –
6 | COC1=Cc2ccc3cc(O)ccc3c2C(=O)C1=O | 6 | 19.7 µg/mL (≈ 77.6 µM) | 25 µg/mL (≈ 98.4 µM) | 6.47% | 18.5 µg/mL (≈ 72.7 µM) | 48.3 µg/mL (≈ 190 µM) | 136 | 2% | 30.31% | 63.22%
